The test system of one series is SF-268. The series can be described thus: Growth inhibition of human SF268 cells assessed as cell viability at 10 uM incubated for 48 hrs by sulforhodamine B assay. The note with it: SF-268, 48 h, read-out: Activity. In kind it is functional.
The subject of another series is 786-0. The series can be described thus: Growth inhibition of human 786-0 cells assessed as cell viability at 10 uM incubated for 48 hrs by sulforhodamine B assay. In kind it is functional. The conditions noted are these: 786-0, 48 h, read-out: Activity.
Series [1] in a line: Growth inhibition of human SF539 cells assessed as cell viability at 10 uM incubated for 48 hrs by sulforhodamine B assay. In kind it is functional. The conditions noted are these: SF-539, 48 h, read-out: Activity.
Another series has as its system A549. The series can be described thus: Growth inhibition of human A549/ATCC cells assessed as cell viability at 10 uM incubated for 48 hrs by sulforhodamine B assay. In kind it is functional. The note with it: A549, 48 h, read-out: Activity.
Another series relates to SK-MEL-5. As to the kind of experiment: Growth inhibition of human SK-MEL-5 cells assessed as cell viability at 10 uM incubated for 48 hrs by sulforhodamine B assay. In kind it is functional. The note with it: SK-MEL-5, 48 h, read-out: Activity.
Another series relates to HCT-15. As to the kind of experiment: Growth inhibition of human HCT15 cells assessed as cell viability at 10 uM incubated for 48 hrs by sulforhodamine B assay. In kind it is functional. The conditions noted are these: HCT-15, 48 h, read-out: Activity.
Another series relates to SNB-75. The series can be described thus: Growth inhibition of human SNB75 cells assessed as cell viability at 10 uM incubated for 48 hrs by sulforhodamine B assay. The note with it: SNB-75, 48 h, read-out: Activity. In kind it is functional.
The next series relates to NCI-H460. The series can be described thus: Growth inhibition of human NCI-H460 cells assessed as cell viability at 10 uM incubated for 48 hrs by sulforhodamine B assay. In kind it is functional. The conditions noted are these: NCI-H460, 48 h, read-out: Activity.
Series [2] is described as follows: Growth inhibition of human Hs 578T cells assessed as cell viability at 10 uM incubated for 48 hrs by sulforhodamine B assay. In kind it is functional. The conditions noted are these: read-out: Activity.
For another series, the system named is SW-620. As to the kind of experiment: Growth inhibition of human SW620 cells assessed as cell viability at 10 uM incubated for 48 hrs by sulforhodamine B assay. In kind it is functional. The note with it: SW-620, 48 h, read-out: Activity.
A further series has as its system SK-MEL-28. The series can be described thus: Growth inhibition of human SK-MEL-28 cells assessed as cell viability at 10 uM incubated for 48 hrs by sulforhodamine B assay. The note with it: SK-MEL-28, 48 h, read-out: Activity. In kind it is functional.
For a further series, the system named is SN12C. As to the kind of experiment: Growth inhibition of human SN12C cells assessed as cell viability at 10 uM incubated for 48 hrs by sulforhodamine B assay. In kind it is functional. The note with it: read-out: Activity.
The next series deals with IGROV-1. As to the kind of experiment: Growth inhibition of human IGROV1 cells assessed as cell viability at 10 uM incubated for 48 hrs by sulforhodamine B assay. In kind it is functional. The note with it: IGROV-1, 48 h, read-out: Activity.
Series [3] in a line: Growth inhibition of human RPMI8226 cells assessed as cell viability at 10 uM incubated for 48 hrs by sulforhodamine B assay. In kind it is functional. The note with it: RPMI-8226, 48 h, read-out: Activity.
Series [4] is described as follows: Growth inhibition of human NCI-ADR-RES cells assessed as cell viability at 10 uM incubated for 48 hrs by sulforhodamine B assay. In kind it is functional. The note with it: read-out: Activity.
A further series concerns CCRF-CEM. As to the kind of experiment: Growth inhibition of human CCRF-CEM cells assessed as cell viability at 10 uM incubated for 48 hrs by sulforhodamine B assay. In kind it is functional. The note with it: read-out: Activity.
In another series the test system is MCF7. As to the kind of experiment: Growth inhibition of human MCF7 cells assessed as cell viability at 10 uM incubated for 48 hrs by sulforhodamine B assay. In kind it is functional. The note with it: MCF7, 48 h, read-out: Activity.
In a further series the test system is HL-60(TB). The series can be described thus: Growth inhibition of human HL-60(TB) cells assessed as cell viability at 10 uM incubated for 48 hrs by sulforhodamine B assay. In kind it is functional. The conditions noted are these: HL-60, 48 h, read-out: Activity.
A further series relates to OVCAR-8. The series can be described thus: Growth inhibition of human OVCAR8 cells assessed as cell viability at 10 uM incubated for 48 hrs by sulforhodamine B assay. In kind it is functional. The note with it: OVCAR-8, 48 h, read-out: Activity.
The target of series [5] is T1, Peroxisome proliferator-activated receptor gamma (Homo sapiens) (UniProt P37231).
T1 sequence (whole entry): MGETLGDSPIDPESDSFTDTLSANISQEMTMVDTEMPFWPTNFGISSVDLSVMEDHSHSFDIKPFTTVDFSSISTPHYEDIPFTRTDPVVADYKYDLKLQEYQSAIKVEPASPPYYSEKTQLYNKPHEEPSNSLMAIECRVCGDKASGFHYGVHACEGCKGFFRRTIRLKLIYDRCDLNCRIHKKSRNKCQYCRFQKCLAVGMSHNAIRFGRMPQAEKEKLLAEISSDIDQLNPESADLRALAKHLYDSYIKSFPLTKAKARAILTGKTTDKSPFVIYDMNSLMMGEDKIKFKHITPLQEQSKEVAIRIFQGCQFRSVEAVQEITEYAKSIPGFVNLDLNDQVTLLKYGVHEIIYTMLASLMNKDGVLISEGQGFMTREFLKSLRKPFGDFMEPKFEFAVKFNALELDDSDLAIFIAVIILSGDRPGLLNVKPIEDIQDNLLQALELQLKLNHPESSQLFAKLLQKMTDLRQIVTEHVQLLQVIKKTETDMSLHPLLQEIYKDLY
As to the kind of experiment: Agonist activity at PPARgamma (unknown origin) expressed in HEK293 cells assessed as receptor transactivation at 10 uM incubated for 24 hrs by luciferase reporter gene assay. In kind it is cell-based.

In series [6] the test system is Rattus norvegicus. The series can be described thus: Antidiabetic activity in STZ-induced diabetic Wistar rat model assessed as reduction in blood glucose level at 30 mg/kg, po repeated for 15 days by GOD-POD method. In kind it is functional, organism-based.
In series [7] the test system is Rattus norvegicus. As to the kind of experiment: Toxicity in STZ-induced diabetic Wistar rat model assessed as increase in body weight at 30 mg/kg, po repeated for 15 days […]. In kind it is organism-based. The note with it: in vivo, 360 h.
Another series concerns TK-10. The series can be described thus: Growth inhibition of human TK10 cells assessed as cell viability at 10 uM incubated for 48 hrs by sulforhodamine B assay. In kind it is functional. The conditions noted are these: TK-10, 48 h, read-out: Activity.
Another series concerns SK-MEL-2. As to the kind of experiment: Growth inhibition of human SK-MEL-2 cells assessed as cell viability at 10 uM incubated for 48 hrs by sulforhodamine B assay. In kind it is functional. The note with it: SK-MEL-2, 48 h, read-out: Activity.
A further series deals with NCI-H522. The series can be described thus: Growth inhibition of human NCI-H522 cells assessed as cell viability at 10 uM incubated for 48 hrs by sulforhodamine B assay. In kind it is functional. The conditions noted are these: NCI-H522, 48 h, read-out: Activity.

Here are results for five compounds from ChEMBL document CHEMBL3621178, “Antidiabetic effect of novel benzenesulfonylureas as PPAR-γ agonists and their anticancer effect” (Bioorg Med Chem Lett, 2015).

Structures are written as SMILES. The source made the active and inactive calls. The rule behind the calls is not given here.

For `CN(C)c1ccc(C2CC(c3cc4ccccc4oc3=O)=NN2c2ccc(S(=O)(=O)NC(=O)NCc3ccccc3)cc2)cc1` (configuration not stated), the viability at 10 µM in the series with SF-268 is 87.9%; in the series with 786-0 it was 68.4%; in series [1] it was 70.8%; in the series with A549, 61%; in the series on SK-MEL-5, 62.7%; in the series on HCT-15 it was 32.8%. In addition, the viability at 10 µM in the series with SNB-75 was found to be 27.1%; with NCI-H460, 65.3%; in series [2], 67.1%; with SW-620 it was 73.1%; with SK-MEL-28, 57.4%; in the series on SN12C, 77.8%. Moreover, the viability at 10 µM came out at 97.8% in the series on IGROV-1; 66.1% in series [3]; 83.1% in [4]; 72% in the series on CCRF-CEM; 47.6% in the series with MCF7; 66.4% with HL-60(TB). Moreover, the viability at 10 µM in the series with OVCAR-8 was found to be 71.7%.

Regarding `COc1ccc(NC(=O)NS(=O)(=O)c2ccc(N3N=C(c4cc5ccccc5oc4=O)CC3c3ccc(N(C)C)cc3)cc2)cc1` (configuration not stated), the viability at 10 µM in the series with SF-268 is 98.8%; in the series on 786-0 it was 96.9%; in series [1], 91.5%; in the series with A549, 95%; in the series with SK-MEL-5 it was 98.4%; in the series on HCT-15, 93.1%. Further, the viability at 10 µM was found to be 70.2% in the series with SNB-75; 105% in the series on NCI-H460; 84.9% in series [2]; 103% with SW-620; 101% in the series on SK-MEL-28; 97.1% with SN12C. Also, the viability at 10 µM in the series on IGROV-1 amounted to 109%; in series [3] it was 98%; in series [4], 100%; in the series with CCRF-CEM, 107%; in the series with MCF7, 83.1%; in the series on HL-60(TB) it was 130%. Further, the viability at 10 µM in the series on OVCAR-8 was determined as 94.9%.

Take `COc1ccc(C2CC(c3cc4ccccc4oc3=O)=NN2c2ccc(S(=O)(=O)NC(=O)Nc3ccccc3C)cc2)cc1` (configuration not stated): the viability at 10 µM turned out to be 101% in the series on SF-268; 94.2% in the series on 786-0; 85.8% in series [1]; 96.6% with A549; 97.2% with SK-MEL-5; 95.8% with HCT-15. The viability at 10 µM turned out to be 78.3% in the series on SNB-75; 99.8% with NCI-H460; 84.8% in series [2]; 97.1% with SW-620; 102% with SK-MEL-28; 99.2% in the series on SN12C. Moreover, the viability at 10 µM in the series on IGROV-1 was found to be 109%; in series [3], 85.8%; in series [4], 98.1%; in the series on CCRF-CEM, 92.6%; with MCF7, 91.1%; in the series with HL-60(TB) it was 108%. In addition, the viability at 10 µM with OVCAR-8 was determined as 99.9%. Besides, the result (in series [5]; with Rattus norvegicus [6]) was Active. Moreover, in the series with Rattus norvegicus [7], the Activity entry is “Non-toxic”.

On to `O=C(NCc1ccccc1)NS(=O)(=O)c1ccc(N2N=C(c3cc4ccccc4oc3=O)CC2c2cccs2)cc1` (configuration not stated), for which the viability at 10 µM with TK-10 was 108%; in the series on SK-MEL-2 it was 96%; in the series with SF-268, 103%; in the series on 786-0 it was 95.3%; in series [1], 103%; with A549, 99.3%. Besides, the viability at 10 µM in the series on SK-MEL-5 turned out to be 101%; with HCT-15 it was 106%; in the series on SNB-75, 82.3%; in the series with NCI-H460, 107%; in series [2], 99.6%; in the series with SW-620, 108%. Also, the viability at 10 µM was 97.4% with SK-MEL-28; 98.4% in the series with SN12C; 96.3% in the series with NCI-H522; 117% in the series with IGROV-1; 105% in series [3]; 103% in series [4]. Further, the viability at 10 µM is 108% in the series with CCRF-CEM, 94.4% in the series with MCF7, 119% with HL-60(TB) and 103% in the series with OVCAR-8.

With `COc1ccc(C2CC(c3ccco3)=NN2c2ccc(S(=O)(=O)NC(=O)NCc3ccccc3)cc2)cc1` (configuration not stated), the viability at 10 µM was determined as 93% in the series on TK-10; 90.7% in the series on SK-MEL-2; 103% in the series on SF-268; 98.6% in the series on 786-0; 90% in series [1]; 92.8% in the series on A549. The viability at 10 µM with SK-MEL-5 came out at 102%; in the series with HCT-15, 101%; with SNB-75, 97.8%; in the series on NCI-H460, 106%; in [2], 105%; in the series on SW-620, 104%. Moreover, the viability at 10 µM in the series with SK-MEL-28 came to 101%; with SN12C, 106%; in the series with NCI-H522, 86.3%; with IGROV-1 it was 113%; in series [3] it was 102%; in [4] it was 104%. The viability at 10 µM in the series with CCRF-CEM was found to be 99%; in the series with MCF7, 94.7%; in the series on HL-60(TB), 126%; in the series with OVCAR-8, 97.9%. Moreover, the result (in series [5]; with Rattus norvegicus [6]) was Active. In the series on Rattus norvegicus [7], the Activity entry was “Non-toxic”.
